The results in this text go back to PMC12751061, “Expression and characterization of an endo-β-1,6-galactanase from Arabidopsis thaliana” (Biochemical Journal, 2025).

The target in the test is T1, ATIYA1 (Arabidopsis thaliana, UniProt F4HP22).
T1 construct: gene At1g13130; secreted from Komagataella phaffii X-33 (pPICZalpha-A), N-glycosylated, Ni-NTA purified
Briefly: HPAEC-PAD hydrolysis time course. The format is biochemical. The note with it: 100 µM substrate, 10 nM enzyme, 0.1 M sodium acetate pH 5.0, 30°C.

T1 sequence (F4HP22 entry or part of it): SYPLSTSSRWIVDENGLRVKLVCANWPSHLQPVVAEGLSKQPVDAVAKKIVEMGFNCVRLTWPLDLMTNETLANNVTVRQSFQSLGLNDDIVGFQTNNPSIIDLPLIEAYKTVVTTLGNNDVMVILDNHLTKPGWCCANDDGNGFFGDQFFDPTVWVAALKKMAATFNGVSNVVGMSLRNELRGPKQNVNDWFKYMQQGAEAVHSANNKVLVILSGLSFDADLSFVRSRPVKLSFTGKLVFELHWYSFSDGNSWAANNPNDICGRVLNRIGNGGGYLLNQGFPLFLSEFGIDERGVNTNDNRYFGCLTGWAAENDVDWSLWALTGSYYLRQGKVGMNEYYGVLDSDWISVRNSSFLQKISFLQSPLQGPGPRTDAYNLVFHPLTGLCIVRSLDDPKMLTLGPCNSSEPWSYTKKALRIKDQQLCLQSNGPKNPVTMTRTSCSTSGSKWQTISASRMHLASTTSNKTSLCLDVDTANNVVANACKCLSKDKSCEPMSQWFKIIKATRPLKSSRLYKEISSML

In the case of `CO[C@@H]1O[C@H](CO[C@@H]2O[C@H](CO[C@@H]3O[C@H](CO[C@@H]4O[C@H](CO[C@@H]5O[C@H](CO)[C@H](O)[C@H](O)[C@H]5O)[C@H](O)[C@H](O)[C@H]4O)[C@H](O)[C@H](O)[C@H]3O)[C@H](O)[C@H](O)[C@H]2O)[C@H](O)[C@H](O)[C@H]1O` [methyl-β-1,6-galactopentaoside], the “HPAEC-PAD hydrolysis time course” value is “preferring higher degrees of polymerization such as methyl-β-1,6-galactopentaoside and methyl-β-1,6-galactohexaoside”.
As for `CO[C@@H]1O[C@H](CO[C@@H]2O[C@H](CO[C@@H]3O[C@H](CO[C@@H]4O[C@H](CO[C@@H]5O[C@H](CO[C@@H]6O[C@H](CO)[C@H](O)[C@H](O)[C@H]6O)[C@H](O)[C@H](O)[C@H]5O)[C@H](O)[C@H](O)[C@H]4O)[C@H](O)[C@H](O)[C@H]3O)[C@H](O)[C@H](O)[C@H]2O)[C@H](O)[C@H](O)[C@H]1O` [methyl-β-1,6-galactohexaoside], the “HPAEC-PAD hydrolysis time course” value is “preferring higher degrees of polymerization such as methyl-β-1,6-galactopentaoside and methyl-β-1,6-galactohexaoside”.
